{"source": "patent US20060009478A1", "about": "“Methods for the treatment of back pain” (priority 2003, published 2006)", "tested_on": "patients with moderate to severe chronic low back pain", "assay": "Global assessment of study medication, low back pain study", "assay_type": "in vivo, human", "settings": "LOCF, ITT", "method": "Global assessment of study medication was also assessed at clinic visits during the titration and fixed-dose periods. The patient was prompted with the question, “How would you rate the study medication you received during the past week/past two weeks? (Please consider the quality of your pain relief, your side effects, your activity level, your mood and sense of well-being, etc. in this evaluation.)” Responses were selected from poor, fair, good, very good, and excellent.\nGlobal assessment and quality of analgesia ratings were summarized descriptively by treatment group for both the titration and fixed-dose periods. Treatments were compared at each visit in the fixed-dose period, globally and in pairwise fashion, using the Cochran-Mantel-Haenszel row mean scores (CMH-RMS) test, using equally spaced scores.", "data": [{"smiles": "COc1ccc2c3c1O[C@H]1C(=O)CC[C@@]4(O)[C@@H](C2)N(C)CC[C@]314", "note": "[OXY QID, oxycodone]", "values": [{"measurement": "Global assessment EXCELLENT (4), number of patients", "setting": "fixed dose period week 1", "result": 14}, {"measurement": "Global assessment EXCELLENT (4), percent of patients", "setting": "fixed dose period week 1", "result": 6.8, "unit": "%"}, {"measurement": "Global assessment FAIR (1), number of patients", "setting": "fixed dose period week 1", "result": 23}, {"measurement": "Global assessment FAIR (1), percent of patients", "setting": "fixed dose period week 1", "result": 11.2, "unit": "%"}, {"measurement": "Global assessment GOOD (2), number of patients", "setting": "fixed dose period week 1", "result": 72}, {"measurement": "Global assessment POOR (0), number of patients", "setting": "fixed dose period week 1", "result": 33}, {"measurement": "Global assessment POOR (0), percent of patients", "setting": "fixed dose period week 1", "result": 16.0, "unit": "%"}, {"measurement": "Global assessment VERY GOOD (3), number of patients", "setting": "fixed dose period week 1", "result": 63}, {"measurement": "Global assessment VERY GOOD (3), percent of patients", "setting": "fixed dose period week 1", "result": 30.6, "unit": "%"}, {"measurement": "Global assessment EXCELLENT (4), number of patients", "setting": "fixed dose period week 2", "result": 21}, {"measurement": "Global assessment EXCELLENT (4), percent of patients", "setting": "fixed dose period week 2", "result": 10.2, "unit": "%"}, {"measurement": "Global assessment FAIR (1), number of patients", "setting": "fixed dose period week 2", "result": 22}, {"measurement": "Global assessment FAIR (1), percent of patients", "setting": "fixed dose period week 2", "result": 10.7, "unit": "%"}, {"measurement": "Global assessment GOOD (2), number of patients", "setting": "fixed dose period week 2", "result": 79}, {"measurement": "Global assessment POOR (0), number of patients", "setting": "fixed dose period week 2", "result": 33}, {"measurement": "Global assessment POOR (0), percent of patients", "setting": "fixed dose period week 2", "result": 16.0, "unit": "%"}, {"measurement": "Global assessment VERY GOOD (3), number of patients", "setting": "fixed dose period week 2", "result": 50}, {"measurement": "Global assessment EXCELLENT (4), number of patients", "setting": "fixed dose period week 4", "result": 20}, {"measurement": "Global assessment EXCELLENT (4), percent of patients", "setting": "fixed dose period week 4", "result": 9.7, "unit": "%"}, {"measurement": "Global assessment FAIR (1), number of patients", "setting": "fixed dose period week 4", "result": 26}, {"measurement": "Global assessment FAIR (1), percent of patients", "setting": "fixed dose period week 4", "result": 12.6, "unit": "%"}, {"measurement": "Global assessment GOOD (2), number of patients", "setting": "fixed dose period week 4", "result": 69}, {"measurement": "Global assessment POOR (0), number of patients", "setting": "fixed dose period week 4", "result": 37}, {"measurement": "Global assessment POOR (0), percent of patients", "setting": "fixed dose period week 4", "result": 18.0, "unit": "%"}, {"measurement": "Global assessment VERY GOOD (3), number of patients", "setting": "fixed dose period week 4", "result": 53}, {"measurement": "Global assessment EXCELLENT (4), number of patients", "setting": "fixed dose period week 6", "result": 23}, {"measurement": "Global assessment EXCELLENT (4), percent of patients", "setting": "fixed dose period week 6", "result": 11.2, "unit": "%"}, {"measurement": "Global assessment FAIR (1), number of patients", "setting": "fixed dose period week 6", "result": 28}, {"measurement": "Global assessment FAIR (1), percent of patients", "setting": "fixed dose period week 6", "result": 13.6, "unit": "%"}, {"measurement": "Global assessment GOOD (2), number of patients", "setting": "fixed dose period week 6", "result": 73}, {"measurement": "Global assessment POOR (0), number of patients", "setting": "fixed dose period week 6", "result": 38}, {"measurement": "Global assessment POOR (0), percent of patients", "setting": "fixed dose period week 6", "result": 18.4, "unit": "%"}, {"measurement": "Global assessment VERY GOOD (3), number of patients", "setting": "fixed dose period week 6", "result": 43}, {"measurement": "Global assessment VERY GOOD (3), percent of patients", "setting": "fixed dose period week 6", "result": 20.9, "unit": "%"}, {"measurement": "Global assessment EXCELLENT (4), number of patients", "setting": "fixed dose period week 8", "result": 20}, {"measurement": "Global assessment EXCELLENT (4), percent of patients", "setting": "fixed dose period week 8", "result": 9.7, "unit": "%"}, {"measurement": "Global assessment FAIR (1), number of patients", "setting": "fixed dose period week 8", "result": 34}, {"measurement": "Global assessment FAIR (1), percent of patients", "setting": "fixed dose period week 8", "result": 16.5, "unit": "%"}, {"measurement": "Global assessment GOOD (2), number of patients", "setting": "fixed dose period week 8", "result": 74}, {"measurement": "Global assessment POOR (0), number of patients", "setting": "fixed dose period week 8", "result": 36}, {"measurement": "Global assessment POOR (0), percent of patients", "setting": "fixed dose period week 8", "result": 17.5, "unit": "%"}, {"measurement": "Global assessment VERY GOOD (3), number of patients", "setting": "fixed dose period week 8", "result": 41}, {"measurement": "Global assessment VERY GOOD (3), percent of patients", "setting": "fixed dose period week 8", "result": 19.9, "unit": "%"}, {"measurement": "Global assessment EXCELLENT (4), number of patients", "setting": "fixed dose period week 10", "result": 23}, {"measurement": "Global assessment EXCELLENT (4), percent of patients", "setting": "fixed dose period week 10", "result": 11.2, "unit": "%"}, {"measurement": "Global assessment FAIR (1), number of patients", "setting": "fixed dose period week 10", "result": 34}, {"measurement": "Global assessment FAIR (1), percent of patients", "setting": "fixed dose period week 10", "result": 16.5, "unit": "%"}, {"measurement": "Global assessment GOOD (2), number of patients", "setting": "fixed dose period week 10", "result": 65}, {"measurement": "Global assessment GOOD (2), percent of patients", "setting": "fixed dose period week 10", "result": 31.6, "unit": "%"}, {"measurement": "Global assessment POOR (0), number of patients", "setting": "fixed dose period week 10", "result": 38}, {"measurement": "Global assessment POOR (0), percent of patients", "setting": "fixed dose period week 10", "result": 18.4, "unit": "%"}, {"measurement": "Global assessment VERY GOOD (3), number of patients", "setting": "fixed dose period week 10", "result": 45}, {"measurement": "Global assessment VERY GOOD (3), percent of patients", "setting": "fixed dose period week 10", "result": 21.8, "unit": "%"}, {"measurement": "Global assessment EXCELLENT (4), number of patients", "setting": "fixed dose period week 12", "result": 22}, {"measurement": "Global assessment EXCELLENT (4), percent of patients", "setting": "fixed dose period week 12", "result": 10.7, "unit": "%"}, {"measurement": "Global assessment FAIR (1), number of patients", "setting": "fixed dose period week 12", "result": 33}, {"measurement": "Global assessment FAIR (1), percent of patients", "setting": "fixed dose period week 12", "result": 16.0, "unit": "%"}, {"measurement": "Global assessment GOOD (2), number of patients", "setting": "fixed dose period week 12", "result": 75}, {"measurement": "Global assessment POOR (0), number of patients", "setting": "fixed dose period week 12", "result": 38}, {"measurement": "Global assessment POOR (0), percent of patients", "setting": "fixed dose period week 12", "result": 18.4, "unit": "%"}, {"measurement": "Global assessment VERY GOOD (3), number of patients", "setting": "fixed dose period week 12", "result": 37}, {"measurement": "Global assessment VERY GOOD (3), percent of patients", "setting": "fixed dose period week 12", "result": 18.0, "unit": "%"}]}]}
